Entries after “also recorded” stand apart in the source; their conditions may differ.
Experiments:
[1] = system: PTH; conditions: Hansen et al. 2012; cited from earlier work
[2] = system: FGF23; conditions: Hansen et al. 2012; cited from earlier work
[3] = system: maintenance hemodialysis patients with secondary hyperparathyroidism (SHPT) and LVH; experiment: Single blinded randomized 12-month trial, etelcalcetide vs alfacalcidol: left ventricular mass index (LVMI) by cardiac MRI; format: in vivo, human; conditions: for estimated adjusted mean difference in the change of LVMI: ANCOVA, 1 year vs baseline, etelcalcetide group compared to alfacalcidol group
From the text: For the study, 62 patients were recruited, of which 30 patients were randomized to treatment with alfacalcidol and 32 to treatment with etelcalcetide. During the course of the 12-month study, ten patients dropped out during follow-up. Data for the main outcome (left ventricular mass index, LVMI in g/m^2) was available for the patients at baseline (enrollment) and at the 1-year follow-up, except for three patients as noted in Example 1. FIG. 1A illustrates a flow chart of the study design. Turning now to FIGS. 2A-2B, data from the study is presented. […] Thus, the 10 patients who dropped out during the study are removed from the analysis. FIG. 2A is a boxplot of the unadjusted primary endpoint for the alfacalcidol and the etelcalcetide treatment groups. […] The unadjusted comparison of the primary endpoint by a 2-sample equal variances t-test yields a significant difference in LVMI change between the treatment groups (p=0.007156). Due to the non-normal distribution of the data, a non-parametric 2-sample Wilcoxon test was also performed to confirm the result (p=0.0006661). An analysis adjusted for the stratification of the randomization was conducted using an Analysis of Covariance (ANCOVA) with outcome variable “Change of LVMI” and using the randomization stratification factors (residual kidney function, center of recruitment) as well as the LVMI at baseline as covariates. […] The associated p-value was 0.00809, in accordance with the result of the unadjusted analysis. In another analysis of the data, referred to as in intention-to-treat analysis, all patients who were randomized for the study are included in the data analysis. Thus, for the 10 patients who dropped out during the study all available measurements are used at the time they were taken. Out of those, for the 3 patients without MRI measurements the outcome values are imputed (obtained as mean values from patients of the same medication group with stratification factors identical to the patient with missing data). Final data on the primary study endpoint, difference of LVMI (g/m^2) at 1 year and LVMI at baseline, for the 62 patients who were randomized for the study is shown in FIG. 2B. The unadjusted comparison of the primary endpoint by a 2-sample equal variances t-test yields a significant difference in LVMI change between the treatment groups (p=0.04691). However, due to the distribution of the data the non-parametric Wilcoxon test is deemed more reliable and confirms the results (p=0.006098). […] The associated p-value was 0.031, in accordance with the result of the unadjusted analysis. Study Overview: A single blinded randomized trial of twelve months to test the effects of etelcalcetide compared to alfacalcidol on LVH and cardiac fibrosis in maintenance hemodialysis patients with secondary hyperparathyroidism (SHPT) was conducted. Both treatment regimens were titrated to equally suppress SHPT. Patients treated three times weekly with hemodialysis for between about 3 months and about 3 years and with parathyroid hormone (PTH) levels ≥300 pg/ml and LVH were enrolled. The primary study endpoint was left ventricular mass index (LVMI) determined in g/m^2 at baseline and at 12 months by cardiac MRI (cMRI). […] Due to the strong association of volume overload and LVH, randomization was additionally stratified by residual kidney function and regular body composition monitoring was performed to control patients' volume status. […]

[4] = system: FGF23; experiment: Trial secondary endpoint: FGF23 blood levels; format: in vivo, human; conditions: 55 individuals, 12-month follow-up, FIGS. 4A-4B, versus alfacalcidol group
From the text: In FIGS. 4A-4B, the data on FGF23 blood levels for the subjects in each treatment group is shown. On average, 8 measurements were available throughout follow-up for each individual.
(§1) Outcomes measurements: Laboratory analyses: Biochemical data was collected prior to hemodialysis at baseline and periodically (e.g., intact PTH, calcium, phosphate, 25-OH-Vit-D, 1,25-(OH)2-Vit-D every two weeks during the first 10 weeks followed by measurements every 4 weeks; while intact FGF23, s-klotho, proBNP and pre+postdialysis TnT was measured in 8-week-intervals). Additionally, a RAAS fingerprint was conducted before start and at the end of the treatment phase. The RAAS fingerprint is a mass spectrometry-based quantification of angiotensin metabolites. […]
(§2) Intact PTH, calcium and phosphate were analyzed in serum samples using the Cobas assay (Roche, reference range of PTH: 15-65 pg/mL, calcium: 2.15-2.55 mmol/L, phosphate: 0.81-1.45 mmol/L). Vitamin D was measured using serum samples and a chemiluminescent-immunoassays (Diasorin, reference range of 1.25-(OH)2-VitD: 19.9-79.3 pg/mL; 25-OH-Vit-D 75-250 nmol/L). Ionized calcium was measured during every dialysis session (using blood gas analysis (ABL 800 Flex, Drott)). Intact FGF23 was analyzed in plasma samples using chemiluminescent—Immunoassays (DiaSorin, reference range 23.2-95.4 pg/mL). […]

[5] = system: calcium; experiment: Trial secondary endpoint: calcium blood levels; format: in vivo, human; conditions: 55 individuals, 12-month follow-up, FIGS. 5A-5B, versus alfacalcidol group
From the text: In FIGS. 5A-5B, the calcium blood levels for the subjects in each treatment group is shown. On average, 17 measurements were available throughout follow-up for each individual.
as §1, §2

[6] = system: PTH; conditions: single intravenous dose, patients on hemodialysis; cited from earlier work
[7] = system: FGF23; conditions: at 24 hours after a single 10 mg dose; cited from earlier work
[8] = system: 1.25(OH)2 vitamin D; conditions: after a single 10 mg dose; cited from earlier work

| Structure (SMILES) | decrease of PTH levels [1] [%] | increase of FGF23 levels [2] | Prevention of LVH progression ([3]; dialysis patients with sHPT, compared to alfacalcidol) | LVMI progression ([3]; dialysis patients with sHPT, compared to treatment with alfacalcidol) | estimated adjusted mean difference in the change of LVMI ([3]; intention-to-treat analysis (62 randomized patients), p=0.031) | effect on LVH and cardiac fibrosis ([3]; patients under maintenance hemodialysis, through a suppression of FGF23) | estimated adjusted mean difference in the change of LVMI ([3]; per-protocol analysis (52 patients who completed), p=0.00809) | FGF23 blood levels, overall measurements and longitudinal behavior [4] | calcium blood levels, overall measurements and longitudinal behavior [5] | duration of lowering of serum levels of PTH [6] | decrease of FGF23 levels [7] | effect on 1.25(OH)2 vitamin D levels [8] |
| --- | --- | --- | --- | --- | --- | --- | --- | --- | --- | --- | --- | --- |
| C=C1/C(=C\C=C2/CCC[C@]3(C)[C@@H]([C@H](C)CCCC(C)C)CC[C@@H]23)C[C@@H](O)C[C@@H]1O [Alfacalcidol] | ≥ 30 | threefold |  |  |  |  |  |  |  |  |  |  |
| CC(=O)N[C@H](CSSC[C@H](N)C(=O)O)C(=O)N[C@H](C)C(=O)N[C@H](CCCNC(=N)N)C(=O)N[C@H](CCCNC(=N)N)C(=O)N[C@H](CCCNC(=N)N)C(=O)N[C@H](C)C(=O)N[C@H](CCCNC(=N)N)C(N)=O [etelcalcetide, (2R)-3-[[(2S)-2-acetamido-3-[[(2R)-1-[[(2R) [[(2R)-1-[[(2R)-1-[[(2R)-1-[[(2R)-1-amino-5-(diaminomethydeneamino)-1-oxopentanyl]amino]-1-oxopropan-2-yl]amino]-5-(diaminomethydeneamino)-1-oxopentan-2-yl]amino]-5-(diaminomethydeneamino)-1-oxopentan-2-yl]amino]-5-(diaminomethydeneamino)-1-oxopentan-2-yl]amino]-1-oxopropan-2-yl]amino]-3-oxopropyl]disulfanyl]-2-aminopropanoic acid] |  |  | 6-8% | prevented LVMI progression | −6.2 (95% confidence interval −11.72 to −0.71) g/m^2 | effectively ameliorates LVH and cardiac fibrosis | −8.2 (95% confidence interval −13.99 to −2.39) g/m^2 | lower values which were decreasing over time; also recorded: decreased FGF23 levels | lower values which were decreasing over time | up to 72 hours | over 30% | little or no effect |

From patent publication US20230201313A1, “METHODS OF TREATING LEFT VENTRICLE HYPERTROPHY” (Amgen Inc., priority 2020, published 2023)
